# Test results: PubChem BioAssay AID330 (DTP/NCI, 2004)
# Values joined by “and” are separate entries in the source; they are usually repeats but may differ in a detail not shown here. Equal values may be shown once. Toxic doses and inconclusive results are not listed.
# System: P388 leukemia ip, CD2F1 mice, survival T/C
# Assay: NCI In Vivo Anticancer Drug Screen. Data for tumor model P388 Leukemia (intraperitoneal) in CD2F1 (CDF1) mice
# Conditions: endpoint: median survival time, higher = longer survival
# How it was run: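 Mice carrying the transplanted tumor received test compound or vehicle. Survival was recorded in each group, and the value is the treated-group measurement divided by that of the vehicle-treated control group.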
# [1] = dose: 50.0 mg/kg/injection, schedule: Q01DX005 (ip), vehicle: Klucel (hydroxypropylcellulose) (HPC)
# [2] = dose: 100.0 mg/kg/injection, schedule: Q01DX005 (ip), vehicle: Klucel (hydroxypropylcellulose) (HPC)
# [3] = dose: 200.0 mg/kg/injection, schedule: Q01DX005 (ip), vehicle: Klucel (hydroxypropylcellulose) (HPC)
smiles,measurement,setting,value
CCN(CC)C1=C(c2ccccc2)C(=O)C1(C#N)C(C)(C)C (centres undefined),T/C,[1],98 % of control
same,T/C,[2],93 % of control
same,T/C,[3],93 % of control
CC1=C(CCC(C)CO)OC2CC3C4CCC5CC(O)CCC5(C)C4CCC3(C)C12 (centres undefined),T/C,"dose: 25.0 mg/kg/injection, schedule: Q01DX009 (ip), vehicle: suspension in saline",90 % of control and 95 % of control
same,T/C,"dose: 50.0 mg/kg/injection, schedule: Q01DX009 (ip), vehicle: suspension in saline",96 % of control
same,T/C,"dose: 100.0 mg/kg/injection, schedule: Q01DX009 (ip), vehicle: suspension in saline",88 % of control and 94 % of control
same,T/C,"dose: 200.0 mg/kg/injection, schedule: Q01DX009 (ip), vehicle: suspension in saline",87 % of control and 89 % of control
COc1c2c(c(OC)c3c1C(=O)c1ccccc1C3=O)CC=CC2,T/C,"dose: 1.56 mg/kg/injection, schedule: Q01DX009 (ip), vehicle: water",101 % of control
same,T/C,"dose: 3.13 mg/kg/injection, schedule: Q01DX009 (ip), vehicle: water",104 % of control
same,T/C,"dose: 6.25 mg/kg/injection, schedule: Q01DX009 (ip), vehicle: water",103 % of control
same,T/C,"dose: 12.5 mg/kg/injection, schedule: Q01DX009 (ip), vehicle: water",103 % of control
same,T/C,"dose: 25.0 mg/kg/injection, schedule: Q01DX009 (ip), vehicle: water",100 % of control
CCN(CC)C(C)CN1c2ccccc2Sc2ccccc21 (centres undefined),T/C,"dose: 50.0 mg/kg/injection, schedule: Q01DX005 (ip), vehicle: saline",100 % of control
same,T/C,"dose: 100.0 mg/kg/injection, schedule: Q01DX005 (ip), vehicle: saline",99 % of control
same,T/C,"dose: 200.0 mg/kg/injection, schedule: Q01DX005 (ip), vehicle: saline",100 % of control
CC(NNC(=S)N1CCN(c2ccccn2)CC1)c1nccc2ccccc12 (centres undefined),T/C,"dose: 12.5 mg/kg/injection, schedule: Q04DX002 (ip), vehicle: Klucel (hydroxypropylcellulose) (HPC)",100 % of control
same,T/C,"dose: 25.0 mg/kg/injection, schedule: Q04DX002 (ip), vehicle: Klucel (hydroxypropylcellulose) (HPC)",100 % of control
same,T/C,"dose: 50.0 mg/kg/injection, schedule: Q04DX002 (ip), vehicle: Klucel (hydroxypropylcellulose) (HPC)",103 % of control
same,T/C,"dose: 100.0 mg/kg/injection, schedule: Q04DX002 (ip), vehicle: Klucel (hydroxypropylcellulose) (HPC)",122 % of control and 124 % of control
same,T/C,"dose: 200.0 mg/kg/injection, schedule: Q04DX002 (ip), vehicle: Klucel (hydroxypropylcellulose) (HPC)",96 % of control
CC(/C=C/C=C/C=C/C=C/C=C/C(O)=C1/C(=O)C(CCC(=O)O)N(C)C1=O)=C\C(C)C(OC1CC(O)C(O)C(C)O1)C(C)C (centres undefined),T/C,"dose: 1.0 mg/kg/injection, schedule: Q01DX005 (ip), vehicle: water",121 % of control
same,T/C,"dose: 2.0 mg/kg/injection, schedule: Q01DX005 (ip), vehicle: water",165 % of control
same,T/C,"dose: 4.0 mg/kg/injection, schedule: Q01DX005 (ip), vehicle: water",112 % of control and 115 % of control
same,T/C,"dose: 8.0 mg/kg/injection, schedule: Q01DX005 (ip), vehicle: water",158 % of control and 163 % of control
COc1ccc(-n2c(=O)c(N=Nc3ccccc3OC)c(O)n(-c3ccccc3Cl)c2=S)cc1,T/C,"dose: 50.0 mg/kg/injection, schedule: Q01DX001 (ip), vehicle: Klucel (hydroxypropylcellulose) (HPC)",100 % of control
same,T/C,"dose: 100.0 mg/kg/injection, schedule: Q01DX001 (ip), vehicle: Klucel (hydroxypropylcellulose) (HPC)",99 % of control
same,T/C,"dose: 200.0 mg/kg/injection, schedule: Q01DX001 (ip), vehicle: Klucel (hydroxypropylcellulose) (HPC)",93 % of control
CN(C)c1ncnc2c1ccn2CC(O)CO (centres undefined),T/C,"dose: 50.0 mg/kg/injection, schedule: Q01DX005 (ip), vehicle: distilled water + alcohol",109 % of control
same,T/C,"dose: 100.0 mg/kg/injection, schedule: Q01DX005 (ip), vehicle: distilled water + alcohol",101 % of control
same,T/C,"dose: 200.0 mg/kg/injection, schedule: Q01DX005 (ip), vehicle: distilled water + alcohol",97 % of control
COC1C(/C=C/C(=O)CCl)OC2OC(C)(C)OC21 (centres undefined),T/C,"dose: 3.12 mg/kg/injection, schedule: Q01DX005 (ip), vehicle: saline",108 % of control
same,T/C,"dose: 6.25 mg/kg/injection, schedule: Q01DX005 (ip), vehicle: saline",108 % of control
same,T/C,"dose: 12.5 mg/kg/injection, schedule: Q01DX005 (ip), vehicle: saline",105 % of control
CC12OC1C(=O)C1C3C=CC(C3)C1C2=O (centres undefined),T/C,"dose: 75.0 mg/kg/injection, schedule: Q04DX002 (ip), vehicle: saline with Tween-80",96 % of control
same,T/C,"dose: 150.0 mg/kg/injection, schedule: Q04DX002 (ip), vehicle: saline with Tween-80",96 % of control
same,T/C,"dose: 300.0 mg/kg/injection, schedule: Q04DX002 (ip), vehicle: saline with Tween-80",97 % of control
COc1cc(Br)c(-c2coc3c(OC)c(OC)ccc3c2=O)cc1OC,T/C,"dose: 15.0 mg/kg/injection, schedule: Q01DX005 (ip), vehicle: saline with Tween-80",89 % of control
same,T/C,"dose: 30.0 mg/kg/injection, schedule: Q01DX005 (ip), vehicle: saline with Tween-80",88 % of control
same,T/C,"dose: 60.0 mg/kg/injection, schedule: Q01DX005 (ip), vehicle: saline with Tween-80",86 % of control
COC(=O)c1c(-c2cc(OC)c(OC)cc2[N+](=O)[O-])c(C=O)n(C)c1C,T/C,"dose: 100.0 mg/kg/injection, schedule: Q01DX001 (ip), vehicle: saline with Tween-80",100 % of control
same,T/C,"dose: 200.0 mg/kg/injection, schedule: Q01DX001 (ip), vehicle: saline with Tween-80",99 % of control
same,T/C,"dose: 400.0 mg/kg/injection, schedule: Q01DX001 (ip), vehicle: saline with Tween-80",91 % of control
O=P(c1ccccc1)(c1ccccc1)c1ccccc1.O=P(c1ccccc1)(c1ccccc1)c1ccccc1.O=P(c1ccccc1)(c1ccccc1)c1ccccc1.O=P(c1ccccc1)(c1ccccc1)c1ccccc1.[O-][Cl+3]([O-])([O-])O.[O]=[U+2]=[O],T/C,"dose: 6.25 mg/kg/injection, schedule: Q01DX009 (ip), vehicle: saline with Tween-80",88 % of control
same,T/C,"dose: 12.5 mg/kg/injection, schedule: Q01DX009 (ip), vehicle: saline with Tween-80",90 % of control
O=C1CP(=O)(O)CC2=C1CCC2,T/C,"dose: 25.0 mg/kg/injection, schedule: Q01DX009 (ip), vehicle: saline",96 % of control
same,T/C,"dose: 50.0 mg/kg/injection, schedule: Q01DX009 (ip), vehicle: saline",96 % of control
same,T/C,"dose: 100.0 mg/kg/injection, schedule: Q01DX009 (ip), vehicle: saline",100 % of control
O=C1c2ccccc2-c2nsc3c(C(Br)Br)ccc1c23,T/C,[1],99 % of control
same,T/C,[2],87 % of control
same,T/C,[3],91 % of control
CCCC1OP(=O)(N(CCOC(C)=O)CCOC(C)=O)OCC1CC (centres undefined),T/C,[1],96 % of control
same,T/C,[2],98 % of control
same,T/C,[3],96 % of control
CCOC(=O)C(CN1C(=O)c2ccccc2C1=O)(NC(C)=O)C(=O)OCC,T/C,"dose: 25.0 mg/kg/injection, schedule: Q01DX009 (ip), vehicle: other",103 % of control
same,T/C,"dose: 50.0 mg/kg/injection, schedule: Q01DX009 (ip), vehicle: other",106 % of control
same,T/C,"dose: 100.0 mg/kg/injection, schedule: Q01DX009 (ip), vehicle: other",103 % of control
same,T/C,"dose: 200.0 mg/kg/injection, schedule: Q01DX009 (ip), vehicle: other",114 % of control
same,T/C,"dose: 400.0 mg/kg/injection, schedule: Q01DX009 (ip), vehicle: other",120 % of control
O=C1c2ccccc2C(=O)N1CN(CS(=O)(=O)c1ccccc1)c1ccccc1,T/C,"dose: 60.0 mg/kg/injection, schedule: Q01DX005 (ip), vehicle: Klucel (hydroxypropylcellulose) (HPC)",98 % of control
same,T/C,"dose: 120.0 mg/kg/injection, schedule: Q01DX005 (ip), vehicle: Klucel (hydroxypropylcellulose) (HPC)",88 % of control
same,T/C,"dose: 240.0 mg/kg/injection, schedule: Q01DX005 (ip), vehicle: Klucel (hydroxypropylcellulose) (HPC)",86 % of control
[N-]=[N+]=CC(=O)C1(c2ccccc2)OC1c1ccc([N+](=O)[O-])cc1 (centres undefined),T/C,"dose: 12.5 mg/kg/injection, schedule: Q01DX001 (ip), vehicle: saline with Tween-80",94 % of control
same,T/C,"dose: 25.0 mg/kg/injection, schedule: Q01DX001 (ip), vehicle: saline with Tween-80",93 % of control
same,T/C,"dose: 50.0 mg/kg/injection, schedule: Q01DX001 (ip), vehicle: saline with Tween-80",86 % of control and 95 % of control
COC1CCCCC1C(=O)C(C#N)C1CCCCC1C1CCCCC1 (centres undefined),T/C,"dose: 50.0 mg/kg/injection, schedule: Q01DX005 (ip), vehicle: saline with Tween-80",100 % of control
same,T/C,"dose: 100.0 mg/kg/injection, schedule: Q01DX005 (ip), vehicle: saline with Tween-80",98 % of control
same,T/C,"dose: 200.0 mg/kg/injection, schedule: Q01DX005 (ip), vehicle: saline with Tween-80",96 % of control
COC12CC(=O)C(C(C)=O)=C(O)C1(C)c1c(O)c(C)c(O)c(C(C)=O)c1O2 (centres undefined),T/C,"dose: 6.25 mg/kg/injection, schedule: Q01DX009 (ip), vehicle: gum acacia",105 % of control and 108 % of control
same,T/C,"dose: 12.5 mg/kg/injection, schedule: Q01DX009 (ip), vehicle: gum acacia",109 % of control and 111 % of control
same,T/C,"dose: 25.0 mg/kg/injection, schedule: Q01DX009 (ip), vehicle: gum acacia",111 % of control and 115 % of control
same,T/C,"dose: 50.0 mg/kg/injection, schedule: Q01DX009 (ip), vehicle: gum acacia",107 % of control and 113 % of control
COc1ccc2c(c1)S(=O)(=O)C(c1ccccc1)=CC2=O,T/C,[1],114 % of control
same,T/C,[2],115 % of control
same,T/C,[3],123 % of control
